For test [1], the target named is neural BZD (central BZD receptor). As to the kind of experiment: Benzodiazepine receptor binding, neural (central) BZD. Further details: species or system rat. The protocol:
(§1) Crude membranes were prepared by homogenization of a rat forebrain sample in 20 ml of ice-cold 50 mM phosphate buffer (81 mM Na^+, 9 mMK^+) buffer with a Brinkman Polytron (setting 6, 15 sec). Buffer was added to obtain a final volume of 40 ml, and the homogenate was centrifuged in a Sorval SS-34 rotor at 39,000 g for 10 min at 0°-4° C. The resulting supernatant was decanted and discarded. The pellet was rehomogenized in ice-cold buffer, diluted, and centrifuged as before. The final pellet was resuspended in the assay buffer and held on ice for the receptor binding assay.
(§2) The inhibition constants (Ki) were calculated from the equation Ki=IC50/(I+L/Kd), where L is the radioligand concentration and Kd is the equilibrium dissociation constant for the radioligand. The IC50 was derived from the inhibition data by linear least squares regression of log (B/Bt-B) versus log I, where I is the test compound concentration, Bt is the total amount of radioligand specifically bound, and B is the amount of specific binding in the presence of a given concentration of the unlabeled test compound. The IC50 is the antilog of log I, when the expression log (B/Bt-B) equals zero.

The target of a further test is T1, peripheral BZD receptor (Rattus norvegicus, UniProt P16257).
T1 construct: Crude membranes were prepared by homogenization of a rat forebrain sample; from tissue; host or cells: rat forebrain crude membranes
The experiment in a line: Receptor binding assay, peripheral BZD ([3H]RO5-4864 displacement, rat forebrain membranes). As to conditions: read-out: BENZODIAZEPINE RECEPTOR BINDING, PERIPHERAL BZD. The method, then: as §1
For the receptor binding assay, aliquots of the membrane preparation were incubated for 90 min at 4° C. in 50 mM phosphate buffer containing 0.5 nM [^3 H]RO-4864 and various concentrations of the unlabeled test compounds. The assay was terminated by rapid filtration through Whatman GF/B filters under vacuum. The filters were washed three times with 5-ml aliquots of ice-cold buffer, and the bound radioactivity trapped on the filters was counted by liquid scintillation spectrometry.
as §2

Test [2] relates to rat pancreatic tumor cell line (AR42J). The experiment in a line: Proliferation assay (growth curves), AR42J. The test is classed as cell-based. The settings on record: single application. The method, then: (§3) The rat pancreatic tumor cell line (AR42J) was obtained from the American Type Culture Collection. The human colon adenocarcinoma (HT-29) and mouse melanoma (B16 F10) were obtained from the in-house tumor bank. The HT-29 cell line is used to generate the CX-1 tumor in nude mice. All cell lines were propagated in Dulbecco's modified Eagle's medium (DMEM) supplemented with 10% fetal bovine serum (FBS) and incubated in a humidified atmosphere of 90% air/ 10% CO2 at 37° C. These cell lines were maintained at Biomeasure, Inc. and were free of mycoplasma as judged by the indirect (Hoechst) method and the direct (Agar) method.
(§4) Growth Curves--The AR42J and HT-29 cells were plated at 5×10^4 cells per well and the B16 F10 was plated at 1×10^4 cells per well in 24 well tissue cult ure dishes in 1ml of DMEM supplemented with 10% FBS. […] The tissue culture plates were incubated at 37° C. in a humidified atomsphere of 90% air/10% CO2 for up to 8 days. At various times, single cell suspensions were obtained by washing the wells with DMEM, adding 0.5 ml of 0.05% trypsin--0.53 mM EDTA, incubating at 37° C. for 5 min., triturating, and adding 0.5ml of DMEM supplemented with 10% FBS to inhibit the trypsin. The total content of each well was added to Isoton and counted using a Coulter Counter model ZF attached to a Channelizer model 256 to ensure that a uniform single cell population was obtained.

A further test relates to mouse melanoma (B16 F10). The experiment in a line: Proliferation assay (growth curves), B16 F10. The test is classed as cell-based. As to conditions: 100 nM, single application. The method, then:
as §3, §4

The subject of test [3] is human colon adenocarcinoma (HT-29). As to the kind of experiment: Proliferation assay (growth curves), HT-29. The test is classed as cell-based. The method, then:
as §3, §4

Setting [4] is: read-out: BENZODIAZEPINE RECEPTOR BINDING, NEURAL BZD.

Like-named read-outs stand apart in the source and are kept apart here.

As to `CN1C(=O)CN=C(c2ccccc2)c2cc(Cl)ccc21` [DIAZEPAM, diazepam], the Ki in test [1] (read-out: BENZ[…] BINDING, NEURAL BZD) came to 8.4 nM.

As for `CN1C(=O)N(C(=O)c2ccc(F)c(F)c2)N=C(c2ccccc2)c2ccccc21` [BIM-18272], on peripheral BZD receptor, the Ki was 3.1 nM.

Regarding `CN1C(=O)N(C(=O)c2ccc(F)cc2)N=C(c2ccccc2)c2ccccc21` [BIM-18154], the Ki on peripheral BZD receptor was 0.68 nM. Moreover, in test [2], the “inhibition of the growth of AR42J cells” value is on record as “did not inhibit”. In addition, the “inhibiting the growth of B16 F10 cells” value in the test with mouse melanoma (B16 F10) is listed as “marginally active”. In addition, the inhibition of growth (usually the percentage by which the read-out fell short of the control) in test [3] (HT-29, day 4, single application) is ~35%. For the same compound, the “inhibiting the growth of HT-29 cells” value in test [3] (single application) is “active”.

For `CN1C(=O)N(C(=O)c2ccc(Cl)c(Cl)c2)N=C(c2ccccc2)c2ccccc21` [BIM-18156], the Ki on peripheral BZD receptor worked out at 1.68 nM.

With `O=C1CN=C(c2ccccc2Cl)c2cc([N+](=O)[O-])ccc2N1` [CLONAZEPAM, clonazepam, reference compound], the Ki on peripheral BZD receptor was 10000 nM; in test [1] (setting [4]) it was 0.55 nM.

In the case of `CN1C(=O)CN=C(c2ccc(Cl)cc2)c2cc(Cl)ccc21` [RO5-4864], the Ki in test [1] (setting [4]) worked out at 7210 nM.

As for `CN1C(=O)N(Cc2ccc(F)cc2)N=C(c2ccccc2)c2ccccc21` [BIM-18268], at peripheral BZD receptor, the Ki came out at 12 nM.

With `CN1C(=O)N(Cc2ccc(Cl)c(Cl)c2)N=C(c2ccccc2)c2ccccc21` [BIM-18269], the Ki at peripheral BZD receptor amounted to 53 nM.

Values taken from US5091381A, “2H-1,3,4-benzotriazepin-2-ones” (Biomeasure, Inc., priority 1991, dated 1992).
